Test results: patent publication US20090053245A1, “Pharmacokinetics and Efficacy of Anti-Angiogenic Drugs and Drugs Treating Diseases of the Blood” (priority 2007, published 2009)

Key:
[1] = non-transplant patients; cited from earlier work
[2] = in vivo; cited from earlier work
[3] = target: T1, CYP3a4 (Homo sapiens, UniProt P08684); test: Fluorescence-based CYP3a4 assay (Invitrogen VIVID) with or without FKBP; assay type: in vitro ADME
T1 construct: purchased Invitrogen (Carlsbad, Calif.) P2856
T1 sequence (P08684 2-503 limits assumed): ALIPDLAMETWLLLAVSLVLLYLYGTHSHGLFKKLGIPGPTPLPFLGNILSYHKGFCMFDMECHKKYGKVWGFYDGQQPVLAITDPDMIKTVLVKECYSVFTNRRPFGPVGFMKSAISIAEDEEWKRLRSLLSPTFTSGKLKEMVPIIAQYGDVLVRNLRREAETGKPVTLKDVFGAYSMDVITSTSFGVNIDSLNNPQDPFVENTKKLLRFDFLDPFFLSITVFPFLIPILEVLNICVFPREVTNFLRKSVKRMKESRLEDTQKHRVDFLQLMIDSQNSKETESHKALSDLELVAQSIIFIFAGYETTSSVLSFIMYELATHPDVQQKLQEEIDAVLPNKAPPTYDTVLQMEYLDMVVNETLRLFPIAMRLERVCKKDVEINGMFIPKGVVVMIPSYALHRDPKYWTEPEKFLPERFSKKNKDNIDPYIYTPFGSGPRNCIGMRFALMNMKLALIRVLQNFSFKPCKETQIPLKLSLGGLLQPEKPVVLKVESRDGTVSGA

[4] = target: T2, vitamin K epoxide reductase (Mus musculus, UniProt Q9CRC0); test: Time course of anticoagulant effect (Helena Thromboplastic Reagent MI clotting test); assay type: in vivo; conditions: mice, 1.5 mg/kg by gavage in 0.5% methylcellulose
T2 construct: clotting time doubles after only about 8 hours for warfarin-SLF dosed mice; from tissue; host or cells: live mice dosed by gavage; clotting time measured on their blood
T2 sequence (Q9CRC0 1-161): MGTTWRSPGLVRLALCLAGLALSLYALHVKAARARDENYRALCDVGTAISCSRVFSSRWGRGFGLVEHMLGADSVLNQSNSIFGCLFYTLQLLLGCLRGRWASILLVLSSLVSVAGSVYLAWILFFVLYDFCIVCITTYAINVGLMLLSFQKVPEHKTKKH
Experimental: Five mice per arm (fifteen animals total) were used for the test. […] The dose was 1.5 mg/kg, administered in 0.5% methylcellulose by gavage. The Helena Thromboplastic Reagent MI test (Helena Laboratories, Beaumont, Tex.) was employed to determine the duration of clotting.

C=CC[C@@H]1/C=C(\C)C[C@H](C)C[C@H](OC)[C@H]2O[C@@](O)(C(=O)C(=O)N3CCCC[C@H]3C(=O)O[C@H](/C(C)=C/[C@@H]3CC[C@@H](O)[C@H](OC)C3)[C@H](C)[C@@H](O)CC1=O)[C@H](C)C[C@@H]2OC [FK506]
half-life [1]: 21 h | distribution in the blood [2]: 72-98%

COc1cc(/C=C/C(=O)CC(=O)/C=C/c2ccc(O)c(OC)c2)ccc1O [curcumin]
protection from degradation by CYP3a4 ([3]; in the presence of human FKBP (recombinant bacterially-expressed protein)): unable to protect | substrate for the enzyme CYP3a4 ([3]; no FKBP added): good substrates

CC(=O)CC(c1ccccc1)c1c(O)c2ccccc2oc1=O (centres unmarked) [warfarin]
time after which clotting time doubles [4]: 18 h
